Results as given in patent US8691865B2 (AbbVie Inc., priority 2008, dated 2014).

Molecular target: human Cav2.2 (Homo sapiens, UniProt Q00975)
Assay: Assessment of calcium channel activity using FLIPR (Ca2+ influx in IMR32 cells)
Assay type: cell-based
Conditions: not given
Protocol: (i) In Vitro Methods—Assessment of Calcium Channel Activity Using FLIPR:
The IMR32 cells were maintained in MEM media containing 10% (v/v) FBS, 1% (v/v) antibiotic/antimitotic, 1% (v/v) sodium pyruvate and 1% (v/v) MEM NEAA. Following dissociation in 0.05% (v/v) trypsin/EDTA, cells were seeded into black 1×96-well plates (Corning Cellbind) at a density of 1−1.2×10^5 cells/well and incubated in the maintenance media above for 48 hours at 37° C. […] To determine the IC50 values, the percent inhibition of the compound at each concentration was determined relative to the activity in the absence of inhibitor, and data was fitted using non-linear regression sigmoidal dose response curve analysis with GraphPad Prism®.

Chain of human Cav2.2 (Q00975 whole entry): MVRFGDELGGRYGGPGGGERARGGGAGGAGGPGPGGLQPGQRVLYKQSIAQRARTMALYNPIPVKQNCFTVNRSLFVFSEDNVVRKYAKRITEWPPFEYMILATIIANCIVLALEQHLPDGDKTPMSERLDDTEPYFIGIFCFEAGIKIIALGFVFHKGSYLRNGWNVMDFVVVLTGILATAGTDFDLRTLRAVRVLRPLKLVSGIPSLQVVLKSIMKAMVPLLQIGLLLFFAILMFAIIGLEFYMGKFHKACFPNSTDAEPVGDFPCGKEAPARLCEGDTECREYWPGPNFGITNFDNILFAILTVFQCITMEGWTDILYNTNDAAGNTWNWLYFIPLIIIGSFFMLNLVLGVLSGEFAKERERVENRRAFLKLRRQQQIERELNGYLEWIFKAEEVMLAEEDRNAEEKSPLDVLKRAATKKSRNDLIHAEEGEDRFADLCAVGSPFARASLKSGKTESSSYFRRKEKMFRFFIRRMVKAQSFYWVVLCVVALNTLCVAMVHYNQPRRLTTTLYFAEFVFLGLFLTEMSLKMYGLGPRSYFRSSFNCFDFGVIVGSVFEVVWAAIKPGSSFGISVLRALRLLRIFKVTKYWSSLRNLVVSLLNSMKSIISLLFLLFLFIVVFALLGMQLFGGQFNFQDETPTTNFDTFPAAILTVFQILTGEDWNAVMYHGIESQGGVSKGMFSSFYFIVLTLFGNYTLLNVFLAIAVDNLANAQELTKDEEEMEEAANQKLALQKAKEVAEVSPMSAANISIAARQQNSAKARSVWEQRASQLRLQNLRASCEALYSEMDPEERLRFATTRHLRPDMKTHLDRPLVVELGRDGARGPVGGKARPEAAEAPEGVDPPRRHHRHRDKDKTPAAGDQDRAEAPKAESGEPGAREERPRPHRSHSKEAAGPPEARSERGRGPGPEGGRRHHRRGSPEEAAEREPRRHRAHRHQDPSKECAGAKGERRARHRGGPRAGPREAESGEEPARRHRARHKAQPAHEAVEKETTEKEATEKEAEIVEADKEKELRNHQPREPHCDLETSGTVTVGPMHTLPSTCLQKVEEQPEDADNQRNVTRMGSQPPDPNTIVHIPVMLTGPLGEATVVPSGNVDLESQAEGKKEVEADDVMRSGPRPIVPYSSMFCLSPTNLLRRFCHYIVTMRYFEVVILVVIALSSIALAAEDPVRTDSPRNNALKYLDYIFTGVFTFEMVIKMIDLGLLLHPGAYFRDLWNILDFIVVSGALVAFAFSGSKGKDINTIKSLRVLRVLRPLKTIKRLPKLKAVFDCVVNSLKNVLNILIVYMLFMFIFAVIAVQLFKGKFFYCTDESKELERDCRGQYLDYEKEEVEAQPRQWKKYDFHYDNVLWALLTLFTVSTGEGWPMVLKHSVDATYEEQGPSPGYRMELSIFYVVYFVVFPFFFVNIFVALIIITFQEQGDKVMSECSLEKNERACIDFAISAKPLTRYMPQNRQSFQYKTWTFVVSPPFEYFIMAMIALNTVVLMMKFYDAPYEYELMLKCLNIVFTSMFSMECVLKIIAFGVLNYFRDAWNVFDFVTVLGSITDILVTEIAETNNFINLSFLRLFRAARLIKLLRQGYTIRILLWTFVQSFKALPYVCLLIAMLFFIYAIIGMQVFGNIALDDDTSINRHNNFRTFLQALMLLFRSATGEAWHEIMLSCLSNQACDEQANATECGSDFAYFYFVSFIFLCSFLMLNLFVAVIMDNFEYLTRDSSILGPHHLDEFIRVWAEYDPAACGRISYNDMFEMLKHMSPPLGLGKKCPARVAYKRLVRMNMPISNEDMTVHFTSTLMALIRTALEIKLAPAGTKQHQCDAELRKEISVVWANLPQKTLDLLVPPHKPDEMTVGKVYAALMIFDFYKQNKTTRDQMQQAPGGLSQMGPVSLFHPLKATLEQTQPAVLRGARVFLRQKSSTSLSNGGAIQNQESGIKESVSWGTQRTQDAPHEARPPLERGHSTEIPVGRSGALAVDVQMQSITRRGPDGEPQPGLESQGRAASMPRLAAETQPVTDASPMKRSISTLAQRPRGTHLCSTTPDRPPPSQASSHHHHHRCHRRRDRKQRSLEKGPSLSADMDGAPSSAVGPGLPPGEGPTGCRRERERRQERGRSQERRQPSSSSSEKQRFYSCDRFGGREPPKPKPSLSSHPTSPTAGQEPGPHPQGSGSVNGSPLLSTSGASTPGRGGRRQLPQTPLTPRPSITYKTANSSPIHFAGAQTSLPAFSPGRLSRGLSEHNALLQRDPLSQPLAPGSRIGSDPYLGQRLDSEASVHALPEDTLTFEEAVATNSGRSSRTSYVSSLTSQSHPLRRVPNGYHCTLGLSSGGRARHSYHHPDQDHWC
Chain of human Cav2.2 (P54289 25-956 partner limits assumed): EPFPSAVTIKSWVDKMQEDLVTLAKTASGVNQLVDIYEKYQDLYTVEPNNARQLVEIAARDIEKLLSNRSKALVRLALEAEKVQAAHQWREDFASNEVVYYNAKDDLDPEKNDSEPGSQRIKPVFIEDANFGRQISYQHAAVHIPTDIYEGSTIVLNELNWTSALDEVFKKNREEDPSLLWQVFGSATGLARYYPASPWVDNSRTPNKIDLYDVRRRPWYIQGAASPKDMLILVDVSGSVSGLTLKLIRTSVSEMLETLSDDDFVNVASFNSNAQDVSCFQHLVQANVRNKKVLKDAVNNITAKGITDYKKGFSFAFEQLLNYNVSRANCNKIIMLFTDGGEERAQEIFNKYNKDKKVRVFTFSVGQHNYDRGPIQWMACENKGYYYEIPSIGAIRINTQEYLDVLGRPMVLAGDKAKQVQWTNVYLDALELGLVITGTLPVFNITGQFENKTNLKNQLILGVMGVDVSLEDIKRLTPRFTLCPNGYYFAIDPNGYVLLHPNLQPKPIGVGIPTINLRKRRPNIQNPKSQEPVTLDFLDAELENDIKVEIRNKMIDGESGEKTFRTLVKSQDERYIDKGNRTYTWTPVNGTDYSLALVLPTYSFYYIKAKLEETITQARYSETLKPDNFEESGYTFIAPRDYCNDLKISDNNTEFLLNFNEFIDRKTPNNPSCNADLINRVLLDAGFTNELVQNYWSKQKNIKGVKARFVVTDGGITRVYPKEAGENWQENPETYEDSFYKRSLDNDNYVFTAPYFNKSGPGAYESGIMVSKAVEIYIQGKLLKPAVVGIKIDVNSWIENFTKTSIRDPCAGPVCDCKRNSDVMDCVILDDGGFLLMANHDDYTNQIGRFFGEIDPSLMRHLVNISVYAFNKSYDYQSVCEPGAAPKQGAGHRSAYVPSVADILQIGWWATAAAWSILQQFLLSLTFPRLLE
Chain of human Cav2.2 (P54289 957-1103 partner limits assumed): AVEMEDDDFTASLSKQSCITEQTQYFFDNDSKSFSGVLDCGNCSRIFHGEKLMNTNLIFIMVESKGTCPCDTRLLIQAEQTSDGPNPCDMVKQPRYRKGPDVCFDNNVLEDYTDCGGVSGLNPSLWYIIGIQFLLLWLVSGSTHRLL
Chain of human Cav2.2 (P54284 whole entry partner): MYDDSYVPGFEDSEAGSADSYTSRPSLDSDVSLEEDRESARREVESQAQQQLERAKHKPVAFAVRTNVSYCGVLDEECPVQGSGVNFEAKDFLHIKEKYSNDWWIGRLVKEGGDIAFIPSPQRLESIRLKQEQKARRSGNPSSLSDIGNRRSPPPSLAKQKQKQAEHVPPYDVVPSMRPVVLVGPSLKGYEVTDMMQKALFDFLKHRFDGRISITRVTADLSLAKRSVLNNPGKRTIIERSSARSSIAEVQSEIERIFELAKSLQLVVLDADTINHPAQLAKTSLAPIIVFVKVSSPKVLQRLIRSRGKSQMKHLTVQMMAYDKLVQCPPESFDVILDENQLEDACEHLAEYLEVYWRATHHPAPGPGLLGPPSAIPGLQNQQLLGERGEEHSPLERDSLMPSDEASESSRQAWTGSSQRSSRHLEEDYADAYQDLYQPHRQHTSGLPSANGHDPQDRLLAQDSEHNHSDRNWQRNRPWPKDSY

SMILES	IC50 [µM]
CN[C@@H](CO)C(=O)N[C@H]1CC[C@@H]2CN(c3ccc(C(F)(F)F)cc3)C[C@@H]21 [Example 749, N^2-methyl-N-{(3aR,4S,6aS)-2-[4-(trifluoromethyl)phenyl]octahydrocyclopenta[c]pyrrol-4-yl}-L-serinamide]	> 3
Fc1ccc2c(CN[C@H]3CC[C@@H]4CN(c5cccc(C(F)(F)F)n5)C[C@@H]43)c[nH]c2c1 [Example 686, (3aR,4S,6aS)-N-[(6-fluoro-1H-indol-3-yl)methyl]-2-[6-(trifluoromethyl)pyridin-2-yl]octahydrocyclopenta[c]pyrrol-4-amine]	0.88
CCCCc1nc(CN[C@H]2CC[C@@H]3CN(c4cccc(C(F)(F)F)n4)C[C@@H]32)c[nH]1 [Example 674, (3aR,4S,6aS)-N-[(2-butyl-1H-imidazol-4-yl)methyl]-2-[6-(trifluoromethyl)pyridin-2-yl]octahydrocyclopenta[c]pyrrol-4-amine]	0.53
CC(C)(C)C[C@H](N)C(=O)N[C@H]1CC[C@@H]2CN(S(=O)(=O)c3cccc(C(F)(F)F)c3)C[C@@H]21 [Example 392, 4-methyl-N^1-((3aR,4S,6aS)-2-{[3-(trifluoromethyl)phenyl]sulfonyl}octahydrocyclopenta[c]pyrrol-4-yl)-L-leucinamide]	0.95
CN[C@@H](CC(C)C)C(=O)N[C@H]1CC[C@@H]2CN(c3ccc(Cl)cc3)C[C@@H]21 [Example 639, N-[(3aR,4S,6aS)-2-(4-chlorophenyl)octahydrocyclopenta[c]pyrrol-4-yl]-N^2-methyl-L-leucinamide]	7.77
NCC(=O)N[C@H]1CC[C@@H]2CN(c3ccc(C(F)(F)F)cc3)C[C@@H]21 [Example 751, N-{(3aR,4S,6aS)-2-[4-(trifluoromethyl)phenyl]octahydrocyclopenta[c]pyrrol-4-yl}glycinamide]	> 3
O=C(N[C@H]1CC[C@H]2CN(Cc3cccc(C(F)(F)F)c3)C[C@H]21)C(C1CCCCC1)C1CCCCC1 (relative stereo) [Example 124, 2,2-dicyclohexyl-N-{(3aS*,4S*,6aR*)-2-[3-(trifluoromethyl)benzyl]octahydrocyclopenta[c]pyrrol-4-yl}acetamide]	1.07
O=C(N[C@H]1CC[C@@H]2CN(c3ccc(C(F)(F)F)cn3)C[C@@H]21)[C@@H]1C[C@@H](F)CN1 [Example 780, (4R)-4-fluoro-N-{(3aR,4S,6aS)-2-[5-(trifluoromethyl)pyridin-2-yl]octahydrocyclopenta[c]pyrrol-4-yl}-L-prolinamide]	14
O=C(N[C@H]1CC[C@@H]2CN(c3ccc(C(F)(F)F)cn3)C[C@@H]21)[C@@H]1Cc2ccccc2N1 [Example 604, (2S)-N-{(3aR,4S,6aS)-2-[5-(trifluoromethyl)pyridin-2-yl]octahydrocyclopenta[c]pyrrol-4-yl}indoline-2-carboxamide]	2.78
CCC[C@H](NC)C(=O)N[C@H]1CC[C@@H]2CN(S(=O)(=O)c3ccc(OC(F)(F)F)cc3)C[C@@H]21 [Example 532, N^2-methyl-N^1-((3aR,4S,6aS)-2-{[4-(trifluoromethoxy)phenyl]sulfonyl}octahydrocyclopenta[c]pyrrol-4-yl)-L-norvalinamide]	3.16
CN[C@@H](CC(C)C)C(=O)N[C@H]1CC[C@@H]2CN(c3cccc(C(F)(F)F)c3)C[C@@H]21 [Example 606, N^2-methyl-N-{(3aR,4S,6aS)-2-[3-(trifluoromethyl)phenyl]octahydrocyclopenta[c]pyrrol-4-yl}-L-leucinamide]	1.19
O=C(N[C@H]1CC[C@@H]2CN(c3cccc(C(F)(F)F)n3)C[C@@H]21)c1cccc(F)c1 [Example 564, 3-fluoro-N-{(3aR,4S,6aS)-2-[6-(trifluoromethyl)pyridin-2-yl]octahydrocyclopenta[c]pyrrol-4-yl}benzamide]	0.34
Cc1c[nH]c(CN[C@H]2CC[C@@H]3CN(c4cccc(C(F)(F)F)n4)C[C@@H]32)n1 [Example 670, (3aR,4S,6aS)-N-[(4-methyl-1H-imidazol-2-yl)methyl]-2-[6-(trifluoromethyl)pyridin-2-yl]octahydrocyclopenta[c]pyrrol-4-amine]	1.17
CN[C@@H](CC(C)C)C(=O)N[C@@H]1CC[C@H]2CN(c3ccc(C(F)(F)F)cn3)C[C@H]21 [Example 738, N^2-methyl-N-{(3aS,4R,6aR)-2-[5-(trifluoromethyl)pyridin-2-yl]octahydrocyclopenta[c]pyrrol-4-yl}-L-leucinamide]	2.98
CNCC(=O)N[C@H]1CC[C@@H]2CN(c3ccc(C(F)(F)F)cc3)C[C@@H]21 [Example 752, N^2-methyl-N-{(3aR,4S,6aS)-2-[4-(trifluoromethyl)phenyl]octahydrocyclopenta[c]pyrrol-4-yl}glycinamide]	> 9.5
CCC[C@H](N)C(=O)N[C@H]1CC[C@@H]2CN(S(=O)(=O)c3ccc(C(F)(F)F)cc3)C[C@@H]21 [Example 422, N^1-((3aR,4S,6aS)-2-{[4-(trifluoromethyl)phenyl]sulfonyl}octahydrocyclopenta[c]pyrrol-4-yl)-L-norvalinamide]	7.83
O=C(N[C@H]1CC[C@H]2CN(Cc3ccccc3)C[C@H]21)C(C1CCCCC1)C1CCCCC1 (relative stereo) [Example 11, N-[(3aS*,4S*,6aR*)-2-benzyloctahydrocyclopenta[c]pyrrol-4-yl]-2,2-dicyclohexylacetamide]	4.67

Other lines, results leading:

IC50 [µM]	SMILES
> 9	CCC[C@H](NC)C(=O)N[C@@H]1CC[C@H]2CN(Cc3ccc(F)cc3)C[C@H]21 [Example 372, N^1-[(3aS,4R,6aR)-2-(4-fluorobenzyl)octahydrocyclopenta[c]pyrrol-4-yl]-N^2-methyl-L-norvalinamide]
> 30	CC(C)(C)[C@H](N)C(=O)N[C@@H]1CC[C@H]2CN(Cc3ccccc3)C[C@H]21 [Example 356, N^1-[(3aS,4R,6aR)-2-benzyloctahydrocyclopenta[c]pyrrol-4-yl]-3-methyl-L-valinamide]
> 30	CN[C@@H](CC(C)C)C(=O)N[C@H]1CC[C@H]2CN(Cc3ccccc3)C[C@H]21 [Example 360, N^1-[(3aS,4S,6aR)-2-benzyloctahydrocyclopenta[c]pyrrol-4-yl]-N^2-methyl-L-leucinamide]

Same assay, conditions: IC50 (μM) or percent inhibition (* indicates 3 minute incubation, otherwise 60 minute), IC50; 3 minute pre-incubation (*); IMR32 cells, 80 mM KCl depolarization

IC50 [µM]	SMILES
2.6	CC(C)C(C(=O)N[C@H]1CC[C@@H]2CN(CC3CCCCC3)C[C@@H]21)c1ccccc1 (stereo partly drawn) [Example 83, N-[(3aR,4S,6aS)-2-(cyclohexylmethyl)octahydrocyclopenta[c]pyrrol-4-yl]-3-methyl-2-phenylbutanamide]

Same assay, conditions: read-out: IC50 (μM) or percent inhibition (* indicates 3 minute incubation, otherwise 60 minute); IC50; 60 minute pre-incubation with compound; IMR32 cells, 80 mM KCl depolarization

SMILES	IC50 [µM]
O=C(N[C@H]1CC[C@H]2CN(Cc3cc(C(F)(F)F)cc(C(F)(F)F)c3)C[C@H]21)C(C1CCCCC1)C1CCCCC1 [Example 59, N-{(3aS,4S,6aR)-2-[3,5-bis(trifluoromethyl)benzyl]octahydrocyclopenta[c]pyrrol-4-yl}-2,2-dicyclohexylacetamide]	0.51
CCC[C@H](N)C(=O)N[C@H]1CC[C@@H]2CN(Cc3ccc(C(F)(F)F)cc3)C[C@@H]21 [Example 382, N^1-{(3aR,4S,6aS)-2-[4-(trifluoromethyl)benzyl]octahydrocyclopenta[c]pyrrol-4-yl}-L-norvalinamide]	14.4
O=S(=O)(N[C@H]1CC[C@H]2CN(Cc3cccc(C(F)(F)F)c3)C[C@H]21)c1cccc(C(F)(F)F)c1 (relative stereo) [Example 185, 3-(trifluoromethyl)-N-{(3aS*,4S*,6aR*)-2-[3-(trifluoromethyl)benzyl]octahydrocyclopenta[c]pyrrol-4-yl}benzenesulfonamide]	0.91
O=C(N[C@H]1CC[C@H]2CN(CCCc3ccccc3)C[C@H]21)C(C1CCCCC1)C1CCCCC1 [Example 69, 2,2-dicyclohexyl-N-[(3aS,4S,6aR)-2-(3-phenylpropyl)octahydrocyclopenta[c]pyrrol-4-yl]acetamide]	1.69

More lines, now with the values ahead:

IC50 [µM]	SMILES
13.4	CC(C)C(C(=O)N[C@H]1CC[C@@H]2CN(Cc3ccccc3)C[C@@H]21)C(C)C [Example 229, N-[(3aR,4S,6aS)-2-benzyloctahydrocyclopenta[c]pyrrol-4-yl]-2-isopropyl-3-methylbutanamide]
2.77	CC(C)C(C(=O)N[C@H]1CC[C@@H]2CN(Cc3cccs3)C[C@@H]21)c1ccccc1 (stereo partly drawn) [Example 102, 3-methyl-2-phenyl-N-[(3aR,4S,6aS)-2-(thien-2-ylmethyl)octahydrocyclopenta[c]pyrrol-4-yl]butanamide]
4.13	CC[C@H](C(=O)N[C@H]1CC[C@H]2CN([C@@H](C)c3ccccc3)C[C@H]21)c1ccccc1 [Example 212, (2S)-2-phenyl-N-{(3aS,4S,6aR)-2-[(1S)-1-phenylethyl]octahydrocyclopenta[c]pyrrol-4-yl}butanamide]
2.68	CC(C)C(C(=O)N[C@@H]1CC[C@H]2CN(Cc3ccccc3)C[C@H]21)c1ccccc1 (stereo partly drawn) [Example 18, N-[(3aS,4R,6aR)-2-benzyloctahydrocyclopenta[c]pyrrol-4-yl]-3-methyl-2-phenylbutanamide]
9.71	CN[C@@H](CC(C)C)C(=O)N[C@H]1CC[C@@H]2CN(Cc3ccc(C(F)(F)F)cc3)C[C@@H]21 [Example 380, N^2-methyl-N^1-{(3aR,4S,6aS)-2-[4-(trifluoromethyl)benzyl]octahydrocyclopenta[c]pyrrol-4-yl}-L-leucinamide]
1.78	Cc1cccc(CN2C[C@H]3CC[C@H](NC(=O)C(c4ccccc4)C(C)C)[C@H]3C2)c1 (stereo partly drawn) [Example 91, 3-methyl-N-[(3aR,4S,6aS)-2-(3-methylbenzyl)octahydrocyclopenta[c]pyrrol-4-yl]-2-phenylbutanamide]
